Laboratory results as given in patent US20120202794A1 (priority 2011, published 2012).

Columns and labels:
[1] = system: HCV Replicon 1b; assay: HCV inhibition assay, HCV replicon 1b (Clone A or ET-lunet cells; RT-PCR or luciferase reporter); type: cell-based; conditions: Hepatitis C virus, 96 h, HCV replicon 1b; 4 days incubation; read-out: Replicon 1b potency EC90
Procedure, shortened: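 Clone A (1500/well) or ET-lunet (3000/well) replicon cells treated with serially diluted compounds (0.5% DMSO, no G418) for 4 days at 37 °C. HCV RNA measured by one-step RT-PCR normalized to rRNA (ΔΔCt) or by luciferase luminescence versus DMSO controls; EC50/EC90 by curve fitting.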

[2] = system: Huh7, HepG2, BxPC3, or CEM cells; assay: Cell cytotoxicity assay (MTS), CC90 as reported in Table 1, cell line not stated; type: cell-based; conditions: MTS assay; 8 days incubation; cell line not given
Procedure, shortened: (§1)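 Compounds, serially diluted from 100 μM, were incubated 8 days at 37° C with Huh7, HepG2 or BxPC3 (2×10^3 cells/well) or CEM (5×10^3 cells/well). Viability was read by MTS, 2 h, absorbance 490 nm. CC90 (90% inhibition) was taken against untreated cells.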

[3] = system: genotype (GT) 1a H77 replicon; assay: Replicon assay, H77 GT 1a replicon in Huh7-Lunet cells (RT-PCR); type: cell-based, HCV; conditions: Hepatitis C virus, GT1A, Huh-7, 96 h, 4 days incubation, read-out: RT-PCR H77 1a Potency EC90
Method: Cell Line and Maintenance: The genotype (GT) 1a H77 replicon (Apath LLC Brooklyn, N.Y.) was stably expressed in Huh7-Lunet cells (kindly provided by R. Bartenschlager University of Heidelberg, Heidelberg, Germany) and maintained in Dulbecco's modified Eagle's medium supplemented with 10% fetal bovine serum, 0.1 mM non essential amino acids (NEAA), 4 mM L-glutamine, 1 mM sodium pyruvate and 0.750 mg/mL G418 (Geneticin) (Invitrogen, Carlsbad, Calif.).
Replicon Assay: Inhibition of HCV in the H77 GT 1a replicon (Apath LLC, Brooklyn, N.Y.) was measured by Real-Time PCR (RT-PCR) Replicon cells were added to the plate at 1500 cells/well in 50 μL of medium and 50 μL of 2× drug dilutions were added (in duplicate) per well in a 96 well plate to total 100 μL per well. The plate was incubated at 37° C. in a humidified 8% CO2 atmosphere for 4 days. After incubation, the supernatant was discarded and total RNA was extracted with RNeasy 96 (Qiagen, Valencia Calif.) per manufacturer's instructions. The extracted RNA was amplified as described by Stuyver et al., J. Virol. (2003) 77: 10689-10694, and the ΔCt values for HCV were determined and the EC90 was calculated using GraphPad Prism software (San Diego, Calif.). A “no drug” (medium only) control was used to determine maximum amount of HCV RNA.

[4] = Cell cytotoxicity assay (MTS), CC90 as reported in Table 1, cell line not stated; type: cell-based; conditions: human; MTS assay; 8 days incubation; cell line not given
Procedure, shortened: as §1

SMILES	EC90 [1] [nM]	CC90 [2] [nM]	EC90 [3] [nM]	CC90 at 8 days [4] [nM]
CC(C)C[C@H]1CN(C(=O)c2cc(-c3ccc([N+](=O)[O-])cc3)on2)[C@@H](CC(C)C)C(=O)N1 [Compound 273, (3S,6S)-3,6-diisobutyl-4-(5-(4-nitrophenyl)isoxazole-3-carbonyl)piperazin-2-one]	3760	> 10000	–	–
CC(C)C[C@H]1C(=O)N[C@@H](c2ccccc2)CN1C(=O)c1noc(-c2ccc(F)cc2)n1 [Compound 292, (3S,6S)-4-(5-(4-Fluorophenyl)-1,2,4-oxadiazole-3-carbonyl)-3-isobutyl-6-phenylpiperazin-2-one]	78	–	79	> 10000
CC(C)C[C@H]1CN(C(=O)[C@@H]2C[C@H]2c2ccc(F)cc2F)[C@@H](CC(C)C)C(=O)N1 [Compound 298, (3S,6S)-4-[(1R,2R)-2-(2,4-fluoro-phenyl)-cyclopropanecarbonyl]-3,6-diisobutyl-piperazin-2-one]	230	> 10000	–	–
CC(C)C[C@H]1C(=O)N[C@@H](c2ccccc2)CN1C(=O)[C@@H]1C[C@H]1c1ccc(Cl)cc1 [Compound 301, (3S,6S)-4-((1R,2R)-2-(4-chlorophenyl)cyclopropanecarbonyl)-3-isobutyl-6-phenyl-piperazin-2-one]	170	> 10000	–	–
CC(C)C[C@H]1C(=O)N[C@@H](c2ccccc2F)CN1C(=O)c1cc(-c2ccc(F)cc2)on1 [Compound 355, (3S,6S)-6-(2-fluorophenyl)-4-(5-(4-fluorophenyl)isoxazole-3-carbonyl)-3-isobutyl-piperazin-2-one]	93	–	160	> 10000
CC(C)C[C@H]1C(=O)N[C@@H](c2ccccc2F)CN1C(=O)c1noc(-c2ccc(F)cc2)n1 [Compound 370, (3S,6S)-6-(2-fluorophenyl)-4-(5-(4-fluorophenyl)-1,2,4-oxadiazole-3-carbonyl)-3-isobutylpiperazin-2-one]	61	–	99	> 10000
CC(C)C[C@H]1C(=O)N[C@@H](c2ccccc2F)CN1C(=O)[C@@H]1C[C@H]1c1ccc(F)cc1 [Compound 373, (3S,6S)-6-(2-fluorophenyl)-4-((1R,2R)-2-(4-fluorophenyl)cyclopropanecarbonyl)-3-isobutylpiperazin-2-one]	57	–	87	> 10000
C/C=C/[C@H]1CN(C(=O)c2cc(-c3ccc(F)cc3)on2)[C@@H](CC(C)C)C(=O)N1 [Compound 424, (3S,6S)-4-(5-(4-fluorophenyl)isoxazole-3-carbonyl)-3-isobutyl-6-((E)-prop-1-en-1-yl)piperazin-2-one]	64	–	82	> 10000
CC(C)C[C@H]1C(=O)N[C@@H](c2cccs2)CN1C(=O)c1cc(-c2ccc(F)cc2)on1 [Compound 426, (3S,6R)-4-(5-(4-fluorophenyl)isoxazole-3-carbonyl)-3-isobutyl-6-(thiophen-2-yl)piperazin-2-one]	18	–	48	> 10000
CC(C)C[C@H]1C(=O)N[C@@H](c2cccs2)CN1C(=O)c1noc(-c2ccc(F)cc2)n1 [Compound 430, (3S,6R)-4-(5-(4-fluorophenyl)-1,2,4-oxadiazole-3-carbonyl)-3-isobutyl-6-(thiophen-2-yl)piperazin-2-one]	2.6	–	18	> 10000
CC(C)C[C@H]1C(=O)N[C@@H](c2cccs2)CN1C(=O)c1cc(-c2ccc(F)cc2)no1 [Compound 432, (3S,6R)-4-(3-(4-fluorophenyl)isoxazole-5-carbonyl)-3-isobutyl-6-(thiophen-2-yl)piperazin-2-one]	20	–	22	> 10000
CC(C)C[C@H]1C(=O)N[C@@H](c2cccs2)CN1C(=O)[C@@H]1C[C@H]1c1ccc(F)cc1 [Compound 433, (3S,6R)-4-((1R,2R)-2-(4-fluorophenyl)cyclopropanecarbonyl)-3-isobutyl-6-(thiophen-2-yl)piperazin-2-one]	18	–	30	> 10000
CC(C)C[C@H]1C(=O)N[C@@H](c2ccsc2)CN1C(=O)c1cc(-c2ccc(F)cc2)on1 [Compound 436, (3S,6S)-4-(5-(4-fluorophenyl)isoxazole-3-carbonyl)-3-isobutyl-6-(thiophen-3-yl)piperazin-2-one]	18	–	38	> 10000
CC(C)C[C@H]1C(=O)N[C@@H](c2ccsc2)CN1C(=O)[C@@H]1C[C@H]1c1ccc(F)cc1 [Compound 445, (3S,6S)-4-((1R,2R)-2-(4-fluorophenyl)cyclopropanecarbonyl)-3-isobutyl-6-(thiophen-3-yl)piperazin-2-one]	27	–	20	> 10000
CC(C)C[C@H]1C(=O)N[C@@H](c2ccsc2)CN1C(=O)c1noc(-c2ccc(F)cc2)n1 [Compound 446, (3S,6S)-4-(5-(4-fluorophenyl)-1,2,4-oxadiazole-3-carbonyl)-3-isobutyl-6-(thiophen-3-yl)piperazin-2-one]	14	–	28	> 10000
CC(C)C[C@H]1C(=O)N[C@@H](c2ccsc2Cl)CN1C(=O)c1cc(-c2ccc(F)cc2)on1 [Compound 496, (3S,6S)-6-(2-chlorothiophen-3-yl)-4-(5-(4-fluorophenyl)isoxazole-3-carbonyl)-3-isobutylpiperazin-2-one]	11	–	65	> 10000
CC(C)C[C@H]1C(=O)N[C@@H](c2ccsc2Cl)CN1C(=O)c1noc(-c2ccc(F)cc2)n1 [Compound 499, (3S,6S)-6-(2-chlorothiophen-3-yl)-4-(5-(4-fluorophenyl)-1,2,4-oxadiazole-3-carbonyl)-3-isobutylpiperazin-2-one]	23	–	83	> 10000
CC(C)C[C@H]1C(=O)N[C@@H](c2cnco2)CN1C(=O)[C@@H]1C[C@H]1c1ccc(F)cc1 [Compound 521, (3S,6R)-4-((1R,2R)-2-(4-fluorophenyl)cyclopropanecarbonyl)-3-isobutyl-6-(oxazol-5-yl)piperazin-2-one]	22	–	4	> 10000
